Results from a melting point compilation (Tetko et al.; mined from patent text by program, amines drawn as free bases though some values may be those of a salt).
Residues, ends and D or L forms follow the SMILES beside them.

Compound Nc1cc(Cl)nc(SC/C=C/C(=O)N2CCOCC2)n1 has a melting point of 154 to 157 °C.
CCCCCCCCCCCCCCCCOc1cc(OC)c([N+](=O)[O-])cc1OC showed a melting point of 71 °C.
In the case of CN(CCCc1ccccc1)[C@H]1CC[C@H](c2ccc([N+](=O)[O-])cc2)CC1, the melting point is reported as 55 to 56 °C.
Compound CC(C)(CCCCCCCCCCC(C)(C)CCC(=O)O)CCC(=O)O has a melting point of 71 to 72 °C.
CC(C#N)c1ccc(C(=O)c2ccc(Cl)cc2)n1C (stereo not given) showed a melting point of 145 to 148 °C.
In the case of OCCNc1nc(NCc2ccccc2)c2ncc(Nc3ncccn3)cc2n1, the melting point is reported as 141 to 142 °C.
Compound C#Cc1ccc2c(c1)C(c1ccccn1)=NCc1c(C(=O)N(C)C)ncn1-2 has a melting point of 193 to 194 °C.
Work on C#CCOc1ccc2c(C)nnc(Cl)c2c1 yielded a melting point of 169 to 171 °C.
Work on O=C(Nc1ccc(C(=O)N2Cc3ccccc3Cc3ccccc32)cc1)c1cc(Cl)ccc1Cl yielded a melting point of 203 to 231 °C.
In the case of CC(C)(C)OC(=O)Nc1cc(=O)c2cc(Oc3ccccc3)c(NS(C)(=O)=O)cc2o1, the melting point is reported as 147 to 150 °C.
OCc1nn(Cc2ccccc2)c2ccccc12 showed a melting point of 85 to 86 °C.
In the case of O=C(Nc1ccc(OC(F)(F)F)cc1)N1CC(c2sncc2C(F)(F)F)C(c2ccc(Cl)cc2)=N1 (stereo not given), the melting point is reported as 101 to 104 °C.
Work on O=P(O)(O)C(O)(CC(O)c1ccccc1)P(=O)(O)O (stereo not given) yielded a melting point of 132 °C.
Work on CCCCCN1C(=O)C(O)(c2cc3c(cc2O)OCO3)c2ccncc21 (stereo not given) yielded a melting point of 193 to 195 °C.
CC(=O)n1nc(C)c2ccccc21 gave a melting point of 70 to 71 °C.
Cc1cc(CSCCNC(=C[N+](=O)[O-])NCCc2cccc(O)c2)sc1CN(C)C gave a melting point of 114 to 115 °C.
Compound CC=Cc1cccc(Oc2ccccc2Cl)c1OC has a melting point of 61 to 62 °C.
In the case of CCOC(=O)c1cn(C)c2cnc3c(F)c(F)ccc3c2c1=O, the melting point is reported as 320 °C.
Compound CS(=O)(=O)c1ccc(-n2nc(C(N)=O)cc2-c2ccc(-c3ccco3)cc2)cc1F has a melting point of 239 to 240 °C.
With CN(C)c1ccc(CN/C=C2\C(=O)NC(=O)c3ccc(I)cc32)cc1O the melting point was 198 to 199 °C.
For Cc1nc2c(N)nc(-c3ccncc3)nc2[nH]1, the melting point was > 310 °C.
CCC(CC)NC(=O)n1nc(Oc2c(Cl)cc(C(F)(F)F)cc2Cl)cc1C showed a melting point of 65 to 67 °C.
In the case of CN(C)CCn1c2c(c3ccccc31)CCSCCC2, the melting point is reported as 62 to 64 °C.
In the case of CCCNc1cc(-c2c(-c3cccc(C)c3)nc3cccnn23)ccn1, the melting point is reported as 128 to 129 °C.
In the case of COc1c(F)cc2c(c1F)CC(n1cc[nH]c1=S)CC2 (stereo not given), the melting point is reported as 228 to 230 °C.
For Cc1ccc(Sc2ccccc2)c(C(=O)O)c1, the melting point was 156 to 157 °C.
With COC(=O)/C(N)=C/C(=O)/C=C/c1ccc(Cl)cc1 the melting point was 112 to 113 °C.
In the case of CC(C)P1(=O)c2ccccc2CN1C (stereo not given), the melting point is reported as 72 to 74 °C.
CCCC(=O)N(Cc1ccc(OC(F)(F)F)cc1)c1cc(Cl)cc(-c2nnn[nH]2)c1 showed a melting point of 179 °C.
In the case of COC(=O)c1ccccc1COc1cccc2oc(C)cc12, the melting point is reported as 93 to 95 °C.
In the case of O=C(/C=C/c1ccc(Br)cc1)c1cnc2sccn12, the melting point is reported as 213 to 215 °C.
For OC(C1=NCCN1)(c1ccccc1)c1ccccn1 (stereo not given), the melting point was 152 to 154 °C.
CCOC(=O)c1ccoc1Cn1c(NC2CCN(C(=O)OCC)CC2)nc2ccccc21 gave a melting point of 162 °C.
With O=C(c1cccc2cc[nH]c12)N1CCN(c2ccc(F)cc2)CC1 the melting point was 222 to 224 °C.
CCCCCC1=NNC(=O)CC1 gave a melting point of 40 °C.
Work on CC(C)(C)OC(=O)NCC1(Cc2noc(=S)[nH]2)CCCCC1 yielded a melting point of 160 to 161 °C.
NC(=C[N+](=O)[O-])NC1CCCC1 gave a melting point of 117 to 124 °C.
Work on COC(=O)[C@H](O[Si](C)(C)C)[C@@H](O[Si](C)(C)C)C(=O)OC yielded a melting point of 75 °C.
In the case of Clc1ccc2c(c1)C(c1ccccc1)=NCc1nccn1-2, the melting point is reported as 146 to 148 °C.
CCC(=O)NC[C@@H]1C[C@H]1c1cccn2nc(C)cc12 (relative stereo) gave a melting point of 95 to 98 °C.
For COc1cc(COc2nn(-c3ccccc3)cc2CC(=O)O)ccc1OCc1nc(-c2ccccc2)oc1C, the melting point was 147 to 148 °C.
Compound O=C(c1ccc(Cl)cc1)N1CC2CC2(c2ccc(Cl)cc2)C1 (stereo not given) has a melting point of 88 to 92 °C.
Fc1ccc2c(-c3cccc(OC[C@@H]4CO4)c3)noc2c1 gave a melting point of 83 to 84 °C.
COC(=O)COc1cccc(C=Cc2nc(-c3ccccc3)c(-c3ccccc3)o2)c1 showed a melting point of 79 to 82 °C.
In the case of CC(C)C(C)(C#N)N1C(=O)c2cc3ccccc3nc2C1=O (stereo not given), the melting point is reported as 195 to 196 °C.
In the case of COc1ccc(C(C)C)cc1-c1cc(-c2nnnn2C2CCN(C(=O)OC(C)(C)C)C2)c(O)cc1O (stereo not given), the melting point is reported as 100 to 104 °C.
Cc1c(Cl)nn2cc(-c3ccc(F)cc3)nc2c1C showed a melting point of 172 to 174 °C.
CC(O)c1ccc2cc(S(N)(=O)=O)sc2c1 (stereo not given) showed a melting point of 134 to 135 °C.
For Cn1c([N+](=O)[O-])cnc1COc1ccc(S(C)(=O)=O)cc1, the melting point was 155 °C.
CCOC(=O)C1=C(COCc2ccc(CN3CCOCC3)o2)NC(C)=C(C(=O)OC)C1c1ccccc1Cl (stereo not given) gave a melting point of 85 to 87 °C.
Work on CC(C)CSc1cc(C(=O)O)cc(N)c1Oc1ccccc1 yielded a melting point of 148 to 150 °C.
With COc1cc(-c2cccs2)c(OC)c2c(OC)cc(-c3cccs3)c(OC)c12 the melting point was 234 to 237 °C.
In the case of COC(=O)[C@H](Cc1ccccc1)NC(=O)c1ccc(N)cc1, the melting point is reported as 145 to 146 °C.
Work on COC(=O)c1c(C)[nH]c(C)c1C1=CC(=O)c2ccccc2C1=O yielded a melting point of 209 to 210 °C.
In the case of COc1ccc(C2CC3(C)C(CC45OCCOC43OCCO5)C3CC(C)C4(O)CCCCC4C23)cc1 (stereo not given), the melting point is reported as 168 to 169 °C.
Work on COc1ccc(-n2cnc3ccc(-c4nnc(CCc5cccc(C#N)c5)o4)cc32)cc1 yielded a melting point of 125 to 127 °C.
In the case of COc1ccc(C(=O)Nc2c(Cl)cncc2Cl)c2c1OCC2CC(=O)NCc1ccc(Cl)cc1 (stereo not given), the melting point is reported as 283 to 286 °C.
COc1cc2cc3c(ccc4ccccc43)nc2cc1OC showed a melting point of 181 to 182 °C.
CCOC(=O)C1(c2ccc(OCc3ccccc3)cc2)CC2=C(C1)C(=O)C(OC)=C(OC)C2=O showed a melting point of 94 to 97 °C.
For CCN(CC)C(=O)Cc1nn(-c2ccccc2)c(=O)c2c1c1ccc(Cl)cc1n2C, the melting point was 167 to 168 °C.
NC(=O)c1ccc(Cn2ccc(OCc3ccc(F)cc3F)c(Cl)c2=O)cc1 showed a melting point of 235 to 238 °C.
For CCc1cccc(CC)c1N(C=O)CC(=O)O, the melting point was 139 to 141 °C.
Compound Cc1ccccc1C=C1CCn2c1nc1ccc(C#N)cc1c2=O has a melting point of 234 to 236 °C.
In the case of CCn1nnnc1Cc1ccc(NC(=O)/C=C/c2cnn(C)c2-c2ccc(F)cc2)cc1, the melting point is reported as 206 to 207 °C.
In the case of Cc1cc(-c2ccc(C(F)(F)F)cc2)nc(-c2ccnc(-c3cccc(S(N)(=O)=O)c3)n2)c1, the melting point is reported as > 250 °C.
CC(C)(OCc1nn(Cc2ccccc2)c2ccccc12)C(=O)Nc1ccccn1 gave a melting point of 121 to 122 °C.
For NC(=O)OCC1COC(C(F)(F)Cl)(C(F)(F)Cl)O1 (stereo not given), the melting point was 56 to 57 °C.
For C=C(C)C(=O)OCCCCCCOc1ccc(C=Cc2ccc([N+](=O)[O-])cc2)cc1, the melting point was 90 to 95 °C.
With CCCc1c(CSc2nnc(NC(=O)CCC(=O)OCC)s2)ccc(C(C)=O)c1O the melting point was 166 °C.
With NC(=O)CNC(=O)[C@@H]1CCCN1 (H-Pro-Gly-NH2) the melting point was 124 to 127 °C.
With CCOCc1nc2c(N)nc3cc(OCc4csc(-c5cccs5)n4)ccc3c2n1CC(C)(C)O the melting point was 192 to 194 °C.
CCCOc1ccc(-c2cncn2-c2ccc(S(C)(=O)=O)cc2)cc1 gave a melting point of 167 to 169 °C.
With C#Cc1c(C#N)nn(-c2c(Cl)cc(C(F)(F)F)cc2Cl)c1N the melting point was 215 to 216 °C.
With CCc1noc(-c2cc3c4cc(N(C)C)ccc4n(CCCCl)c3cn2)n1 the melting point was 183 to 186 °C.
CNCc1cccc2c(=O)c(C)c(-c3ccccc3)oc12 showed a melting point of 97 to 99 °C.
Work on COCc1cn(-c2cccc(C(F)(F)F)c2)nc(C(=O)OC)c1=O yielded a melting point of 138 to 140 °C.
With O=C(O)c1c2c(nc3ccc(F)cc13)-c1ccc(-c3cccc(F)c3)cc1CCC2 the melting point was > 300 °C.
Cc1nc(C)c(Cl)c(NCc2ccc(O)c(OC(F)F)c2)n1 showed a melting point of 167 to 168 °C.
CC(C)(C)c1cc(C(=O)c2cccs2)cc(CN(C2CCCCC2)C2CCCCC2)c1O gave a melting point of 161 to 162 °C.
With Cn1c(Nc2cccc(C(F)(F)F)c2)nc2c(-c3cccc(C(=O)NCCO)c3)cccc21 the melting point was 235 to 236 °C.
Work on O=C(O)CCC/C=C/c1ccc2ccccc2n1 yielded a melting point of 142 to 144 °C.
CC=CCSc1cc(C(=O)O)cc([N+](=O)[O-])c1-c1ccccc1 gave a melting point of 138 to 140 °C.
Compound Cc1cc(-c2ccc(C(F)(F)F)cc2)cc(-c2ccnc(-c3ccnc(N)c3)n2)n1 has a melting point of 217 °C.
CC(C)(C)c1cc(CC2=NC(=S)SC2)cc(C(C)(C)C)c1O gave a melting point of 138 to 140 °C.
O=C1C(=O)c2ccc(-c3ccc(C(F)(F)F)cc3)cc2C2=C1SCC1(CCNCC1)O2 gave a melting point of 190 to 240 °C.
In the case of OC(CNCCc1cc(Br)sc1Br)c1ccccc1 (stereo not given), the melting point is reported as 94 °C.
With CCOC(=O)c1c(Nc2cc(F)ccc2[N+](=O)[O-])sc2ccccc12 the melting point was 137 to 140 °C.
In the case of CC(=O)C(=Cc1cccc([N+](=O)[O-])c1)C(C)=O, the melting point is reported as 92 to 95 °C.
With CCN1c2ncc(/C=C/c3ccncc3)cc2C(=O)N(C)c2ccc(Cl)nc21 the melting point was 150 to 152 °C.
For N#CC=Cc1ccc(C(=O)O)cc1, the melting point was 281 °C.
For CCCCCCCCNC(=O)N1CCC(Oc2ccc(CCNC[C@H](O)COc3ccc(O)cc3)cc2)CC1, the melting point was 79 to 81 °C.
In the case of C=C(C)C(=O)OCCN(C(=O)c1ccc(C(=O)O)cc1C(=O)O)C(C)(C)C, the melting point is reported as 74 °C.
For CCCCCCCCCCCCCCOC(=O)CCC(=O)CCC(=O)OCC, the melting point was 43 °C.
With CCOC(=O)C1C=Nc2c(cccc2[N+](=O)[O-])C1=O (stereo not given) the melting point was 241 to 243 °C.
Compound CC(C)c1cccc(-c2ccc(F)cc2)c1OCCOc1ccc(C(=O)C(=O)O)cc1 has a melting point of 123 to 125 °C.
Compound c1ccc(CN2CCC(=C3c4ccsc4CCn4ccnc43)CC2)cc1 has a melting point of 178 °C.
With Cc1cc2c(cc1F)c(C#N)c(-c1ccc(S(=O)(=O)N[C@H](C)C(F)(F)F)cn1)n2C1CCCC1 the melting point was 191 to 193 °C.
COc1c(N2CCC(n3cc(C)nn3)C2)c(F)c(N)c2c(=O)c(C(=O)O)cn(C3CC3)c12 (stereo not given) showed a melting point of 256 °C.
Work on N#CCN1C(=O)COc2cc(F)c(N3C(=O)C4=C(CCCC4)C3=O)cc21 yielded a melting point of 216 to 220 °C.
In the case of CN1CCC(C2(O)c3ccccc3COc3cc(Cl)ccc32)CC1 (stereo not given), the melting point is reported as 199 to 200 °C.
